Test results: the NIST ThermoML archive (doi:10.1016/j.jct.2011.12.008)

Experiment: xn = mol fraction of the nth substance listed
Conditions: 101 kPa, Liquid; for viscosity: Capillary tube (Ostwald / Ubbelohde) method; for mass density: Vibrating tube method

CCCCCCn1cc[n+](C)c1.F[B-](F)(F)F [1-hexyl-3-methylimidazolium tetrafluoroborate] + CC(C)CO
Conditions | mass density [kg/m3] | viscosity [mPa·s]
293.15 K, x1 = 0.3101 | 989.53 | 18.26
293.15 K, x1 = 0.4279 | 1031.42 | 26.88
293.15 K, x1 = 0.5606 | 1068.28 | 49.75
293.15 K, x1 = 0.6901 | 1097.67 | 84.38
293.15 K, x1 = 0.8327 | 1123.89 | 138.81
293.15 K, x1 = 1 | 1149.05 | 234.68
298.15 K, x1 = 0.3101 | 985.83 | 15.47
298.15 K, x1 = 0.4279 | 1027.83 | 23.01
298.15 K, x1 = 0.5606 | 1064.75 | 37.72
298.15 K, x1 = 0.6901 | 1094.14 | 66.81
298.15 K, x1 = 0.8327 | 1120.44 | 107.94
298.15 K, x1 = 1 | 1145.61 | 178.92
303.15 K, x1 = 0.1004 | 870.1 | 5.95
303.15 K, x1 = 0.151 | 902.53 | 7.454
303.15 K, x1 = 0.2009 | 931.08 | 8.374
303.15 K, x1 = 0.3101 | 982.2 | 12.94
303.15 K, x1 = 0.4279 | 1024.31 | 18.9
303.15 K, x1 = 0.5606 | 1061.3 | 32.1
303.15 K, x1 = 0.6901 | 1090.76 | 53.77
303.15 K, x1 = 0.8327 | 1117.15 | 84.55
303.15 K, x1 = 1 | 1142.3 | 136.15
308.15 K, x1 = 0.1004 | 866.28 | 4.975
308.15 K, x1 = 0.151 | 898.71 | 6.339
308.15 K, x1 = 0.2009 | 927.23 | 7.116
308.15 K, x1 = 0.3101 | 978.63 | 10.74
308.15 K, x1 = 0.4279 | 1020.8 | 15.81
308.15 K, x1 = 0.5606 | 1057.79 | 25.74
308.15 K, x1 = 0.6901 | 1087.32 | 45.36
308.15 K, x1 = 0.8327 | 1113.75 | 67.62
308.15 K, x1 = 1 | 1138.95 | 106.65
313.15 K, x1 = 0.1004 | 862.42 | 4.108
313.15 K, x1 = 0.151 | 894.93 | 5.202
313.15 K, x1 = 0.2009 | 923.74 | 6.184
313.15 K, x1 = 0.3101 | 975.11 | 9.102
313.15 K, x1 = 0.4279 | 1017.21 | 13.43
313.15 K, x1 = 0.5606 | 1054.27 | 21.67
313.15 K, x1 = 0.6901 | 1083.88 | 37.52
313.15 K, x1 = 0.8327 | 1110.33 | 52.79
313.15 K, x1 = 1 | 1135.59 | 83.13
318.15 K, x1 = 0.1004 | 858.54 | 3.188
318.15 K, x1 = 0.151 | 891.18 | 4.388
318.15 K, x1 = 0.2009 | 920.15 | 5.281
318.15 K, x1 = 0.3101 | 971.5 | 7.758
318.15 K, x1 = 0.4279 | 1013.64 | 11.45
318.15 K, x1 = 0.5606 | 1050.78 | 18.8
318.15 K, x1 = 0.6901 | 1080.45 | 31.4
318.15 K, x1 = 0.8327 | 1106.94 | 45.07
318.15 K, x1 = 1 | 1132.22 | 69.13
323.15 K, x1 = 0.1004 | 854.62 | 2.993
323.15 K, x1 = 0.151 | 887.3 | 3.765
323.15 K, x1 = 0.2009 | 916.37 | 4.555
323.15 K, x1 = 0.3101 | 967.87 | 6.719
323.15 K, x1 = 0.4279 | 1010.02 | 9.919
323.15 K, x1 = 0.5606 | 1047.3 | 15.64
323.15 K, x1 = 0.6901 | 1077.03 | 26.31
323.15 K, x1 = 0.8327 | 1103.61 | 36.01
323.15 K, x1 = 1 | 1128.88 | 56.74
328.15 K, x1 = 0.1004 | 850.65 | 2.586
328.15 K, x1 = 0.151 | 883.51 | 3.266
328.15 K, x1 = 0.2009 | 912.52 | 3.949
328.15 K, x1 = 0.3101 | 964.12 | 5.855
328.15 K, x1 = 0.4279 | 1006.35 | 8.616
328.15 K, x1 = 0.5606 | 1043.79 | 13.62
328.15 K, x1 = 0.6901 | 1073.6 | 21.88
328.15 K, x1 = 0.8327 | 1100.2 | 29.92
328.15 K, x1 = 1 | 1125.5 | 48.36
333.15 K, x1 = 0.1004 | 846.65 | 2.21
333.15 K, x1 = 0.151 | 879.73 | 2.847
333.15 K, x1 = 0.2009 | 908.64 | 3.475
333.15 K, x1 = 0.3101 | 960.36 | 5.18
333.15 K, x1 = 0.4279 | 1002.74 | 7.6
333.15 K, x1 = 0.5606 | 1040.26 | 11.92
333.15 K, x1 = 0.6901 | 1070.21 | 18.98
333.15 K, x1 = 0.8327 | 1096.86 | 26.84
333.15 K, x1 = 1 | 1122.14 | 43.01
338.15 K, x1 = 0.1004 | 842.59 | 1.853
338.15 K, x1 = 0.151 | 875.79 | 2.526
338.15 K, x1 = 0.2009 | 904.74 | 3.056
338.15 K, x1 = 0.3101 | 956.56 | 4.566
338.15 K, x1 = 0.4279 | 999.08 | 6.374
338.15 K, x1 = 0.5606 | 1036.78 | 10.1
338.15 K, x1 = 0.6901 | 1066.82 | 15.78
338.15 K, x1 = 0.8327 | 1093.56 | 23.43
338.15 K, x1 = 1 | 1118.8 | 37.15
